# Data published in ChEMBL document CHEMBL1201862, “PubChem BioAssay data set” (2004).
# The source made the active and inactive calls.
# Legend:
# Type in all cases: functional
# [1] = molecular target: T1, Caspase-3 (Homo sapiens, UniProt P42574);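 further: Dose-response selectivity test against caspase-3 for candidate inhibitors of sentrin-specific proteases (SENPs)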
# T1 sequence (P42574 whole entry): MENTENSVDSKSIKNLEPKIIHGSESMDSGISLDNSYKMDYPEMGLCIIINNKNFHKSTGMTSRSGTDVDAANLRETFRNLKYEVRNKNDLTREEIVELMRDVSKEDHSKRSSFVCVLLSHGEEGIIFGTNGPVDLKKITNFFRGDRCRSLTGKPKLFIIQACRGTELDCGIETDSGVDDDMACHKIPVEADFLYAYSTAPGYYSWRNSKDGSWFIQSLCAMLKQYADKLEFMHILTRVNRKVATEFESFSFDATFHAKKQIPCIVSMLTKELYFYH
# [2] = molecular target: T2, Mitogen-activated protein kinase kinase kinase kinase 2 (Homo sapiens, UniProt Q12851);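 further: measured as one member of a kinome-wide kinase panel, with MAP4K2 as the panel entry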
# T2 sequence (Q12851 whole entry): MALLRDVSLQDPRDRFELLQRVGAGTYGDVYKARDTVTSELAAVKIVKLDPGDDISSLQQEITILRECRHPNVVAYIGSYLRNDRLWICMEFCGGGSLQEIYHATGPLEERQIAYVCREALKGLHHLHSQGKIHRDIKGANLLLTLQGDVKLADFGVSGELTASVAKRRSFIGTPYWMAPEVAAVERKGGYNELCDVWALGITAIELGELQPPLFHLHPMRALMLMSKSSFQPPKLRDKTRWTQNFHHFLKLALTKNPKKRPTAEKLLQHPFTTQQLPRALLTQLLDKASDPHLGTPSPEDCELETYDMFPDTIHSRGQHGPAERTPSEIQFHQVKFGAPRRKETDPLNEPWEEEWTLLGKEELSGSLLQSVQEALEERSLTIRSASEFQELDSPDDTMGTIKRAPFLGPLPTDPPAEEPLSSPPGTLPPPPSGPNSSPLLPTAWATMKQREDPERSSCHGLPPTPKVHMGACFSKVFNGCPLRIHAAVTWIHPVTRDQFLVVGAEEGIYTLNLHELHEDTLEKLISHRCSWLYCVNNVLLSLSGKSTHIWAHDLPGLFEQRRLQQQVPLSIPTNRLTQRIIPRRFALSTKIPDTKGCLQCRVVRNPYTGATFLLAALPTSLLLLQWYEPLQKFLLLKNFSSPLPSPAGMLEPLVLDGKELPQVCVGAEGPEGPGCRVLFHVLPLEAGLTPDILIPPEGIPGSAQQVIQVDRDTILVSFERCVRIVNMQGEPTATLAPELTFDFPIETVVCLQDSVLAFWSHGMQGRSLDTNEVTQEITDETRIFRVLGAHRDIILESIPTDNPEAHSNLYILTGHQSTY
# [3] = molecular target: T3, Serine/threonine-protein kinase Chk1 (Homo sapiens, UniProt O14757);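 further: measured as one member of a kinome-wide kinase profiling panel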
# T3 sequence (O14757 whole entry): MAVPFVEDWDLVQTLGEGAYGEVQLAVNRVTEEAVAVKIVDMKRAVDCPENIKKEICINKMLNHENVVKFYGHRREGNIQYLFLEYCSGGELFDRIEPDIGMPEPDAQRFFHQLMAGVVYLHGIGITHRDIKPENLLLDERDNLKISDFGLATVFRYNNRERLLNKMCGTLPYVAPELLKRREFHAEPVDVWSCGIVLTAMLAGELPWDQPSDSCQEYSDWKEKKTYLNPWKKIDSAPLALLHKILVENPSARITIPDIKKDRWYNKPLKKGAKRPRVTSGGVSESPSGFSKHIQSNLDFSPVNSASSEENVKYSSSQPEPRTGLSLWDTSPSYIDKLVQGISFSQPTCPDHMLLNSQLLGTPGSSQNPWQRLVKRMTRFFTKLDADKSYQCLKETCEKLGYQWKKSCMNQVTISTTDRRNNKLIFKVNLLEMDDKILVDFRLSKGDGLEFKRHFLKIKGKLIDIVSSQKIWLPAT
# [4] = molecular target: Leucine-rich repeat serine/threonine-protein kinase 2 (Homo sapiens, UniProt Q5S007);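 further: value from a broad kinome-wide panel profiling study in which LRRK2 was one of the kinases tested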
# [5] = molecular target: Hepatocyte growth factor receptor (Homo sapiens, UniProt P08581);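 further: kinase panel profiling across the kinome, with MET as the panel member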
# [6] = molecular target: Vascular endothelial growth factor receptor 1 (Homo sapiens, UniProt P17948);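 further: measured within a kinome-wide profiling panel, FLT1 as the panel member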
# [7] = molecular target: Cyclin-dependent kinase 9 (Homo sapiens, UniProt P50750);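 further: value from the CDK9 entry of a kinome-spanning kinase panel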
# [8] = molecular target: T4, Tyrosine-protein kinase receptor TYRO3 (Homo sapiens, UniProt Q06418);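 further: TYRO3 value obtained as one member of a kinome-wide profiling panel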
# T4 sequence (Q06418 whole entry): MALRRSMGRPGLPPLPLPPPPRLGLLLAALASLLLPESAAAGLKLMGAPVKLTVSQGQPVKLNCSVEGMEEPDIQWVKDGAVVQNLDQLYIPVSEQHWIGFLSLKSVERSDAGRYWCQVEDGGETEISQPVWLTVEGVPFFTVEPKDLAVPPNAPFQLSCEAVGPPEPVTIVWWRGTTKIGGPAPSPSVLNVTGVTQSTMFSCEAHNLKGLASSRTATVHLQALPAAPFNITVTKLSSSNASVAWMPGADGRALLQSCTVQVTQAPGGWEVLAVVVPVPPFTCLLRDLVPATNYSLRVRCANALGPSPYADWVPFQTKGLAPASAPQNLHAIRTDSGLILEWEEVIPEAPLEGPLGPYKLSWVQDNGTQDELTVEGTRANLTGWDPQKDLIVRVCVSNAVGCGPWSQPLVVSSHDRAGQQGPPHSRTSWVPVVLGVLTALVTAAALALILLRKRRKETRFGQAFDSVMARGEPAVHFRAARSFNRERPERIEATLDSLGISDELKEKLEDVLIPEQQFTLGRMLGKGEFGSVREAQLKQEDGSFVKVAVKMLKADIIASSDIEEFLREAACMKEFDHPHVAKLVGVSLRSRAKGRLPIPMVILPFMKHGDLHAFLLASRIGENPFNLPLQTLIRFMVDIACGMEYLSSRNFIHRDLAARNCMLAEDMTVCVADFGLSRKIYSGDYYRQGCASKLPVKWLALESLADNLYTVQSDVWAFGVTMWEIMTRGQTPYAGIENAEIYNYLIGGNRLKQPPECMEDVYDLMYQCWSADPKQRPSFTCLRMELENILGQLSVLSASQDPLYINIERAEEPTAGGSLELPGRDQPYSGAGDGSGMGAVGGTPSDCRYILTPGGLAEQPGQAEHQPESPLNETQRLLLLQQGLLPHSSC
# Sequence of Leucine-rich repeat serine/threonine-protein kinase 2 (Q5S007 whole entry): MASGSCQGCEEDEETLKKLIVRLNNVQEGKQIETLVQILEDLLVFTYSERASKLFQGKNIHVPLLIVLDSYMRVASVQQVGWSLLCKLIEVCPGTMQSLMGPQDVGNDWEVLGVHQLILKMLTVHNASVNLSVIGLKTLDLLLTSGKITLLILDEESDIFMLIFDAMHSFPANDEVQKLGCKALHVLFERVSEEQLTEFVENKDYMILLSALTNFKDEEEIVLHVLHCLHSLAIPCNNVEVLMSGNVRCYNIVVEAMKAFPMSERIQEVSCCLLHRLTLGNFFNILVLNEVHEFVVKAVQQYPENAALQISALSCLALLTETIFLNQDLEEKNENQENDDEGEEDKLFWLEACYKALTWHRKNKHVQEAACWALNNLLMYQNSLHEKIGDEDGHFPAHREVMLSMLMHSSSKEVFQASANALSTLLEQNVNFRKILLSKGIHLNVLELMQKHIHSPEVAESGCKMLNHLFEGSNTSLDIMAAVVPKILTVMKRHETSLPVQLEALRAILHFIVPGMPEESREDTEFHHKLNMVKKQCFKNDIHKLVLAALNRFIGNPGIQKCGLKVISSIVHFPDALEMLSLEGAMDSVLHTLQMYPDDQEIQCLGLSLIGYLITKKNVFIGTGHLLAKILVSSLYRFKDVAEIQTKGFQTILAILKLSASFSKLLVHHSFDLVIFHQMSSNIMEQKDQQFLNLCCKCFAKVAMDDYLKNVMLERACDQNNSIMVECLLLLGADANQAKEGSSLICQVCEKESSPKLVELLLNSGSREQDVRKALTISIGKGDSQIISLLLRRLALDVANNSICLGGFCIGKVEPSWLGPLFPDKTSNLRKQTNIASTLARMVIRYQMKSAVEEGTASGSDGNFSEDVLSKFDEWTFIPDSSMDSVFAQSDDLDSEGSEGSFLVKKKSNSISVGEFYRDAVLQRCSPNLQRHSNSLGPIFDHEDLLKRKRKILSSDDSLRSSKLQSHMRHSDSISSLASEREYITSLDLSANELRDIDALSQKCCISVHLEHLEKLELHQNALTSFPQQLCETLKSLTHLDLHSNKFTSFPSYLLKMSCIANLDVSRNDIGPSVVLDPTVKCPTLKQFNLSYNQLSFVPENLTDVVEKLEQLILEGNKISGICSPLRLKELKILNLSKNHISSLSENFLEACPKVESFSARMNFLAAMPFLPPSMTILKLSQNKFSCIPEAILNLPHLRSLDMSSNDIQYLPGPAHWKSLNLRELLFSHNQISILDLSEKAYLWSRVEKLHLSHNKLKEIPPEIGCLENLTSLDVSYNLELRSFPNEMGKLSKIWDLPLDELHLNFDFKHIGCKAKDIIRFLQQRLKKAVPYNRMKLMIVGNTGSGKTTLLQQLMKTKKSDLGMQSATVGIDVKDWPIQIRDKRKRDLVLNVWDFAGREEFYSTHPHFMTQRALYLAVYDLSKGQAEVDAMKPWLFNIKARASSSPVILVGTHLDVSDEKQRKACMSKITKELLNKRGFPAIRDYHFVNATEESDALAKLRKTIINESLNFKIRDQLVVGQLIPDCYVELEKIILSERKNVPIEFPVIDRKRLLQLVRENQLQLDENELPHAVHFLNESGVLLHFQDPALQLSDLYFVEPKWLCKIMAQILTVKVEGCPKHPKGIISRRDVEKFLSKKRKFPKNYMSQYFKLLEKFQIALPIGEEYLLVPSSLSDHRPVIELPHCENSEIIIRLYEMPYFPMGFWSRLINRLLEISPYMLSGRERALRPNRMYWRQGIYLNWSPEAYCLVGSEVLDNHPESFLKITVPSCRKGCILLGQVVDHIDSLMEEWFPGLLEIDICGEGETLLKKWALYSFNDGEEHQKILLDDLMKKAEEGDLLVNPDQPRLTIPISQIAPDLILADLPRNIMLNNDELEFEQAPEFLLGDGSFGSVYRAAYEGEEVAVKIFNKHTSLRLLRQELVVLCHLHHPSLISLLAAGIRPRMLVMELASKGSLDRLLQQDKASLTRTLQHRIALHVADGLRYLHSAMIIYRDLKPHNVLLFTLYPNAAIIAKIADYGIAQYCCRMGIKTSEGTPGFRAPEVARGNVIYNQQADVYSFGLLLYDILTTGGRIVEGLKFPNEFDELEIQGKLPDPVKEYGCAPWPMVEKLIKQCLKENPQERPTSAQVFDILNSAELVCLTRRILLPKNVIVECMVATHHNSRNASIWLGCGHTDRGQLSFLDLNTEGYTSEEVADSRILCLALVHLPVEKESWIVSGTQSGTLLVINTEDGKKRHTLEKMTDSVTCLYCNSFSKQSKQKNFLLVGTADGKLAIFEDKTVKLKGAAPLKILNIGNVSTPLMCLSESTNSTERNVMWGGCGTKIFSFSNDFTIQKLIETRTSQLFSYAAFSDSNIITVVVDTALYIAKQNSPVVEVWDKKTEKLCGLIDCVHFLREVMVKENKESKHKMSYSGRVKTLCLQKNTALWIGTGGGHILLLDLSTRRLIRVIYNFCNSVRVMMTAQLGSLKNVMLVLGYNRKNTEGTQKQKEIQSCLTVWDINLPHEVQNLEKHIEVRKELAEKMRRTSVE
# Sequence of Hepatocyte growth factor receptor (P08581 whole entry): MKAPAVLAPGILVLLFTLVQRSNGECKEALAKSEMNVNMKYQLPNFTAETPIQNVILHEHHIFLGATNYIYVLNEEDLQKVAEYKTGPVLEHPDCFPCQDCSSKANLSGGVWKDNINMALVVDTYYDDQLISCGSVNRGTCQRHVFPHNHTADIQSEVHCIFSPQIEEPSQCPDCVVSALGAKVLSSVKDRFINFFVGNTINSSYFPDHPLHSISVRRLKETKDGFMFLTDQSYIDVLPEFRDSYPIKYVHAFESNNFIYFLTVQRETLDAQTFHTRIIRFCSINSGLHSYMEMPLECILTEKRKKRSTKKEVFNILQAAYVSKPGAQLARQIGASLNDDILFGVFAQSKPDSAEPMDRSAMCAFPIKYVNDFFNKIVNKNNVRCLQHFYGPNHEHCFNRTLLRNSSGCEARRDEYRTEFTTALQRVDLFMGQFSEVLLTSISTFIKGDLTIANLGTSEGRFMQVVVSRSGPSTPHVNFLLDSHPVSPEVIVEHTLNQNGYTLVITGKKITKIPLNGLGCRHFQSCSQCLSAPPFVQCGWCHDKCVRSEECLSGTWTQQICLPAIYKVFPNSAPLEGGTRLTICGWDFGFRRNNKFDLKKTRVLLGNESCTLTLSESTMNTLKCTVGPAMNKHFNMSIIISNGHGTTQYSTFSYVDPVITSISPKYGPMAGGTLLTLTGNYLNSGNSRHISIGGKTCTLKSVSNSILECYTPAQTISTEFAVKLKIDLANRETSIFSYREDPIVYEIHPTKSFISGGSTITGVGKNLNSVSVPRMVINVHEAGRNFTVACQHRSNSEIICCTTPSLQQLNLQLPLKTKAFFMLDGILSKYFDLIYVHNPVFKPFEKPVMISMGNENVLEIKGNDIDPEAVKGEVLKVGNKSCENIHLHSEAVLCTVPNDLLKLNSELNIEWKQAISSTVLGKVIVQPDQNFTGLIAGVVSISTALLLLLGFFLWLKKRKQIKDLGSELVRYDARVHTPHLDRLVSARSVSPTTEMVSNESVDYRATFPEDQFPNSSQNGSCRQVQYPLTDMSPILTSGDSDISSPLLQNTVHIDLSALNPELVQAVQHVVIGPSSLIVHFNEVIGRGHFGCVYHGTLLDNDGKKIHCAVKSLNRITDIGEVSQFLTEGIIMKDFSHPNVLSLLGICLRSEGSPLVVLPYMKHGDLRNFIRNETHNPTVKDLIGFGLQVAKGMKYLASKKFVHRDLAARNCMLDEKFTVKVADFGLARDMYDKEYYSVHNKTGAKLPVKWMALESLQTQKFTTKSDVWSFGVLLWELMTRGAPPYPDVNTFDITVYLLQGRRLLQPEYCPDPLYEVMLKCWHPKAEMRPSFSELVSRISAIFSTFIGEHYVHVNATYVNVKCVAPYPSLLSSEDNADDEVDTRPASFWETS
# Sequence of Cyclin-dependent kinase 9 (P50750 whole entry): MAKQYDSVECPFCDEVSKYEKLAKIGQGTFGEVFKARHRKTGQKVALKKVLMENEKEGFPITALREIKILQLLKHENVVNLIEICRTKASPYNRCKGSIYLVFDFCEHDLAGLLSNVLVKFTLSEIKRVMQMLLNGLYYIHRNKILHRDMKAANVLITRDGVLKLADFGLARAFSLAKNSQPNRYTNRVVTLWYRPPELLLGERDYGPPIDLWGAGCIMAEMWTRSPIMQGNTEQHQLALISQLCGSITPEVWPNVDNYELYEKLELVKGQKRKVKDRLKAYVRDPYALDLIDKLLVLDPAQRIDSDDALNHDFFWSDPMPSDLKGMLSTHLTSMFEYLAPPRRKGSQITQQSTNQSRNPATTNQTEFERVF
SMILES,Ki [2],Ki [3],Ki [4],Ki [5],Ki [6],Ki [7],Ki [8],IC50 [1]
O=C(NC1=C(Nc2ccc(F)cc2)C(=O)c2ccccc2C1=O)c1ccc(Cl)cc1,,,,,,,,19 µM (active)
Oc1nc(Nc2ccc(F)cc2)cc2ccccc12,,,,,,,,4.77 µM (active)
CN(C)c1cc(N/N=C\c2ccccc2)nc(N(C)C)n1,,,,,,,,> 100 µM (inactive)

# Further lines, with some results ahead:
Ki [2],Ki [3],Ki [4],Ki [5],Ki [6],Ki [7],Ki [8],SMILES,IC50 [1]
0.0316 µM (active),0.02 µM (active),0.00794 µM (active),2.51 µM (active),0.02 µM (active),0.0794 µM (active),2 µM (active),O=C1Nc2cc(-c3ccc(O)cc3)ccc2C1=Cc1ccc[nH]1,
0.0158 µM (active),0.251 µM (active),0.00631 µM (active),0.316 µM (active),0.000631 µM (active),0.158 µM (active),0.0251 µM (active),NC(COc1cncc(-c2ccc3c(c2)C(=Cc2ccc[nH]2)C(=O)N3)c1)Cc1ccccc1 (centres undefined),
31.6 µM (active),3.98 µM (active),20 µM (active),25.1 µM (active),79.4 µM (active),15.8 µM (active),20 µM (active),O=C1Cc2cc(-c3ccccc3)cnc2N1,
